Data: the NIST ThermoML archive (doi:10.1016/j.jct.2015.02.020)
Numbers after ± are expanded uncertainties.

Tests used:
[1] = 101.33 kPa, Liquid; for viscosity: Falling or rolling sphere viscometry; for speed of sound: Sing-around technique in a fixed-path interferometer; for mass density: Vibrating tube method
[2] = refractive index (Na D-line) (dimensionless); settings: 101.33 kPa, Liquid, Standard Abbe refractometry

CC[n+]1ccc(C)cc1.O=S(=O)([N-]S(=O)(=O)C(F)(F)F)C(F)(F)F
Settings	mass density, [1] [kg/m3]	refractive index, [2]	speed of sound, [1] [m/s]	viscosity, [1] [mPa·s]
293.15 K	1491.6 ± 0.67	1.44562 ± 0.00037	1275.3 ± 1.5	40.01 ± 0.87
298.15 K	1486.67 ± 0.66	1.44412 ± 0.00037	1263.8 ± 1.5	32.83 ± 0.72
303.15 K	1481.76 ± 0.66	1.4426 ± 0.00037	1252.4 ± 1.5	27.39 ± 0.6
308.15 K	1476.87 ± 0.65	1.44108 ± 0.00037	1241.2 ± 1.5	23.17 ± 0.51
313.15 K	1472 ± 0.65	1.43954 ± 0.00037	1230.1 ± 1.5	19.8 ± 0.43
318.15 K	1467.15 ± 0.64	1.43794 ± 0.00037	1219.2 ± 1.5	17.17 ± 0.37
323.15 K	1462.32 ± 0.64	1.43641 ± 0.00037	1208.3 ± 1.5	15 ± 0.33
328.15 K	1457.52 ± 0.63	1.43493 ± 0.00037	1197.3 ± 1.5	13.26 ± 0.29
333.15 K	1452.73 ± 0.63	1.43344 ± 0.00037	1187 ± 1.5	11.82 ± 0.26
338.15 K	1447.96 ± 0.62	1.43195 ± 0.00037	1176.5 ± 1.5	10.57 ± 0.23
343.15 K	1443.21 ± 0.62	1.43047 ± 0.00037	1166.1 ± 1.5	9.51 ± 0.21

CC[n+]1cccc(C)c1.O=S(=O)([N-]S(=O)(=O)C(F)(F)F)C(F)(F)F
Settings	mass density, [1] [kg/m3]	refractive index, [2]	speed of sound, [1] [m/s]	viscosity, [1] [mPa·s]
293.15 K	1493.4 ± 0.67	1.44503 ± 0.00037	1270.6 ± 1.5	47.85 ± 1.1
298.15 K	1488.54 ± 0.66	1.44355 ± 0.00037	1259.6 ± 1.5	39.08 ± 0.85
303.15 K	1483.69 ± 0.66	1.44204 ± 0.00037	1248.5 ± 1.5	32.33 ± 0.71
308.15 K	1478.86 ± 0.65	1.44056 ± 0.00037	1237.5 ± 1.5	27.12 ± 0.59
313.15 K	1474.05 ± 0.65	1.43904 ± 0.00037	1226.7 ± 1.5	23.06 ± 0.5
318.15 K	1469.26 ± 0.65	1.43751 ± 0.00037	1216 ± 1.5	19.81 ± 0.43
323.15 K	1464.49 ± 0.64	1.43599 ± 0.00037	1205.4 ± 1.5	17.32 ± 0.38
328.15 K	1459.74 ± 0.64	1.43451 ± 0.00037	1194.9 ± 1.5	15.15 ± 0.33
333.15 K	1455.01 ± 0.63	1.43304 ± 0.00037	1184.6 ± 1.5	13.39 ± 0.29
338.15 K	1450.3 ± 0.63	1.4316 ± 0.00037	1174.3 ± 1.5	11.92 ± 0.26
343.15 K	1445.6 ± 0.62	1.43014 ± 0.00037	1164.2 ± 1.5	10.67 ± 0.23

CC[n+]1ccccc1C.O=S(=O)([N-]S(=O)(=O)C(F)(F)F)C(F)(F)F
Settings	mass density, [1] [kg/m3]	refractive index, [2]	speed of sound, [1] [m/s]	viscosity, [1] [mPa·s]
293.15 K	1510.22 ± 0.69	1.44938 ± 0.00037	1310.9 ± 1.5	97.02 ± 2.8
298.15 K	1505.35 ± 0.68	1.44789 ± 0.00037	1299.5 ± 1.5	75.84 ± 1.9
303.15 K	1500.5 ± 0.68	1.4464 ± 0.00037	1288.5 ± 1.5	60.69 ± 1.3
308.15 K	1495.66 ± 0.67	1.44493 ± 0.00037	1277.3 ± 1.5	49.76 ± 1.1
313.15 K	1490.85 ± 0.67	1.44343 ± 0.00037	1266.3 ± 1.5	41.04 ± 0.9
318.15 K	1486.06 ± 0.66	1.44181 ± 0.00037	1255.4 ± 1.5	34.3 ± 0.75
323.15 K	1481.29 ± 0.66	1.44037 ± 0.00037	1244.6 ± 1.5	29.05 ± 0.63
328.15 K	1476.54 ± 0.65	1.4388 ± 0.00037	1234 ± 1.5	24.86 ± 0.54
333.15 K	1471.81 ± 0.65	1.43744 ± 0.00037	1223.4 ± 1.5	21.51 ± 0.47
338.15 K	1467.11 ± 0.64	1.43599 ± 0.00037	1213 ± 1.5	18.71 ± 0.41
343.15 K	1462.42 ± 0.64	1.43454 ± 0.00037	1202.7 ± 1.5	16.54 ± 0.36

CC[n+]1ccccc1.O=S(=O)([N-]S(=O)(=O)C(F)(F)F)C(F)(F)F [1-ethylpyridinium bis[(trifluoromethyl)sulfonyl]imide]
Settings	mass density, [1] [kg/m3]	refractive index, [2]	speed of sound, [1] [m/s]	viscosity, [1] [mPa·s]
293.15 K	1540.83 ± 0.72	1.44227 ± 0.00037	1279.1 ± 1.5	50.27 ± 1
298.15 K	1535.84 ± 0.71	1.44091 ± 0.00037	1268.1 ± 1.5	41.08 ± 0.9
303.15 K	1530.87 ± 0.71	1.43939 ± 0.00037	1257.1 ± 1.5	34.17 ± 0.75
308.15 K	1525.92 ± 0.7	1.43788 ± 0.00037	1246.3 ± 1.5	28.79 ± 0.63
313.15 K	1520.99 ± 0.7	1.43637 ± 0.00037	1235.6 ± 1.5	24.58 ± 0.54
318.15 K	1516.08 ± 0.69	1.4349 ± 0.00037	1225 ± 1.5	21.18 ± 0.46
323.15 K	1511.2 ± 0.69	1.43339 ± 0.00037	1214.5 ± 1.5	18.48 ± 0.4
328.15 K	1506.34 ± 0.68	1.43193 ± 0.00037	1204.2 ± 1.5	16.26 ± 0.35
333.15 K	1501.5 ± 0.68	1.43048 ± 0.00037	1193.9 ± 1.5	14.35 ± 0.31
338.15 K	1496.67 ± 0.67	1.42905 ± 0.00037	1183.8 ± 1.5	12.79 ± 0.28
343.15 K	1491.87 ± 0.67	1.42762 ± 0.00037	1173.8 ± 1.5	11.48 ± 0.25
